ChEMBL document CHEMBL1145958, “Furoyl and benzofuroyl pyrroloquinolones as potent and selective PDE5 inhibitors for treatment of erectile dysfunction” (J Med Chem, 2003)

Assays:
[1] = molecular target: T1, cGMP-specific 3',5'-cyclic phosphodiesterase (Homo sapiens, UniProt O76074); assay: Inhibitory activity against Phosphodiesterase 5 (PDE5) was evaluated
[2] = Selective inhibition of PDE5 versus PDE6 in retinal rod
[3] = Selective inhibition of PDE5 versus PDE6 in retinal cone
[4] = molecular target: T1, cGMP-specific 3',5'-cyclic phosphodiesterase; assay: Inhibition of PDE5
Canis familiaris [5] = species on record: Canis familiaris; assay: Dose required for potentiated ICP increase in dogs; assay type: functional, Canis lupus familiaris
Canis familiaris [6] = species on record: Canis familiaris; assay: Effective dose in dogs; assay type: functional; conditions: Canis lupus familiaris

SMILES	Ki [1]	further results
O=C(c1ccc(-c2ccco2)o1)N1Cc2c(nc3ccccc3c2O)C1c1ccc2c(c1)OCO2 (stereo not drawn)	4.66 nM	
N#Cc1ccc(-c2ccc(C(=O)N3Cc4c(nc5ccccc5c4O)C3c3ccc4c(c3)OCO4)o2)cc1 (stereo not drawn)	2.71 nM	
CN1CCN(C(=O)c2ccc(-c3ccc(C(=O)N4Cc5c(nc6ccccc6c5O)C4c4ccc5c(c4)OCO5)o3)cc2)CC1 (single isomer, unassigned; (-)) [listing 1 of 2 here]	0.2 nM	
CN(C)c1ccc(-c2ccc(C(=O)N3Cc4c(nc5ccccc5c4O)C3c3ccc4c(c3)OCO4)o2)cc1 (stereo not drawn)	3.74 nM	
O=C(c1ccc(-c2ccsc2)o1)N1Cc2c(nc3ccccc3c2O)C1c1ccc2c(c1)OCO2 (stereo not drawn)	0.71 nM	
CN1CCN(C(=O)c2ccc(-c3ccc(C(=O)N4Cc5c(nc6ccccc6c5O)C4c4ccc5c(c4)OCO5)o3)cc2)CC1 (racemic) [listing 1 of 2 here]		Ratio [2]: 2; Ratio [3]: 2
O=C(c1ccc(-c2ccccc2)o1)N1Cc2c(nc3ccccc3c2O)C1c1ccc2c(c1)OCO2 (stereo not drawn)	2.09 nM	
O=C(O)c1ccc(-c2ccc(C(=O)N3Cc4c(nc5ccccc5c4O)C3c3ccc4c(c3)OCO4)o2)cc1 (stereo not drawn)	1.01 nM	
O=C(c1ccc(-c2ccc(CO)cc2)o1)N1Cc2c(nc3ccccc3c2O)C1c1ccc2c(c1)OCO2 (stereo not drawn)	0.61 nM	
O=C(c1ccc(-c2cccc(C(F)(F)F)c2)o1)N1Cc2c(nc3ccccc3c2O)C1c1ccc2c(c1)OCO2 (stereo not drawn)	0.98 nM	
O=C(c1ccc(Br)o1)N1Cc2c(nc3ccccc3c2O)C1c1ccc2c(c1)OCO2 (stereo not drawn)	2.07 nM	
O=C(c1ccc(-c2cccnc2)o1)N1Cc2c(nc3ccccc3c2O)C1c1ccc2c(c1)OCO2 (stereo not drawn)	0.15 nM	Ratio [2]: 144; Ratio [3]: 108
O=C(c1cc2ccc(O)cc2o1)N1Cc2c(nc3ccccc3c2O)C1c1ccc2c(c1)OCO2 (stereo not drawn)	0.35 nM	Ratio [2]: 31; Ratio [3]: 29
CN1CCN(C(=O)c2ccc(-c3ccc(C(=O)N4Cc5c(nc6ccccc6c5O)C4c4ccc5c(c4)CCO5)o3)cc2)CC1 (stereo not drawn)		Ratio [2]: 13; Ratio [3]: 12
CN1CCN(C(=O)c2ccc(-c3ccc(C(=O)N4Cc5c(nc6ccccc6c5O)C4c4ccc5c(c4)OCO5)o3)cc2)CC1 (racemic) [listing 2 of 2 here]	1.82 nM	
CN1CCN(C(=O)c2ccc(-c3ccc(C(=O)N4Cc5c(nc6ccccc6c5O)C4c4ccc5c(c4)OCO5)o3)cc2)CC1 (single isomer, unassigned; (-)) [listing 2 of 2 here]		Ratio [2]: 13; Ratio [3]: 13.2
O=Cc1ccc(-c2ccc(C(=O)N3Cc4c(nc5ccccc5c4O)C3c3ccc4c(c3)OCO4)o2)cc1 (stereo not drawn)		Ki [4]: 2.59 nM
O=C(c1ccc(-c2cccc([N+](=O)[O-])c2)o1)N1Cc2c(nc3ccccc3c2O)C1c1ccc2c(c1)OCO2 (stereo not drawn)	1.3 nM	
CS(=O)(=O)Nc1ccc(-c2ccc(C(=O)N3Cc4c(nc5ccccc5c4O)C3c3ccc4c(c3)OCO4)o2)cc1 (stereo not drawn)	0.24 nM	Dose (Canis familiaris [5]): 0.3 mg/kg; ED50 (Canis familiaris [6]): 0.284 mg/kg
O=C(c1ccc(-c2ccc(O)cc2)o1)N1Cc2c(nc3ccccc3c2O)C1c1ccc2c(c1)OCO2 (stereo not drawn)	0.73 nM	
O=C(c1ccccc1)N1Cc2c(nc3ccccc3c2O)C1c1ccc2c(c1)OCO2 (stereo not drawn)	2.49 nM	
COC(=O)c1ccc(-c2ccc(C(=O)N3Cc4c(nc5ccccc5c4O)C3c3ccc4c(c3)OCO4)o2)cc1 (stereo not drawn)	0.99 nM	
O=C(c1ccc(-c2ccc(OCCN3CCCC3)cc2)o1)N1Cc2c(nc3ccccc3c2O)C1c1ccc2c(c1)OCO2 (stereo not drawn)	0.76 nM	
O=C(c1ccc(-c2ccc([N+](=O)[O-])cc2)o1)N1Cc2c(nc3ccccc3c2O)C1c1ccc2c(c1)OCO2 (stereo not drawn)	0.61 nM	
O=C(c1ccc(-c2cccc(CO)c2)o1)N1Cc2c(nc3ccccc3c2O)C1c1ccc2c(c1)OCO2 (stereo not drawn)	0.47 nM	
O=C(c1ccc(-c2cccnc2)o1)N1Cc2c(nc3ccccc3c2O)C1c1ccc2c(c1)CCO2 (stereo not drawn)	0.53 nM	
COc1ccc(-c2ccc(C(=O)N3Cc4c(nc5ccccc5c4O)C3c3ccc4c(c3)OCO4)o2)cc1 (stereo not drawn)	1.71 nM	
Cc1ccc(-c2ccc(C(=O)N3Cc4c(nc5ccccc5c4O)C3c3ccc4c(c3)OCO4)o2)cc1 (stereo not drawn)	2.64 nM	
O=C(c1cc2ccc(O)cc2o1)N1Cc2c(nc3ccccc3c2O)C1c1ccc2c(c1)CCO2 (stereo not drawn)	1.74 nM	Ratio [2]: 291; Ratio [3]: 646
O=C(c1ccc(-c2ccncc2)o1)N1Cc2c(nc3ccccc3c2O)C1c1ccc2c(c1)OCO2 (stereo not drawn)	0.31 nM	Ratio [2]: 23; Ratio [3]: 34
